Assay results from patent US20070092879A1, “Fluoresence-based dna primase assays” (AstraZeneca AB, priority 2003, published 2007).

Molecular target: E. coli DNA primase (Escherichia coli, UniProt P0ABS5)
Assay: Fluorescence-based E. coli DNA primase HTS assay in the presence of helicase (SYBR Green II)
Format: biochemical
Conditions: for inhibition of primase activity: 50 mM salt
Experimental: The reaction was carried out on a Costar 384-well black plate. The reaction volume was 30 μl. The final concentrations in the reaction were 50 mM Tris-HCl, pH 7.5, 10 mM Mg(OAc)2, 10 mM DTT, 25 mM potassium glutamate, 0.003% Brij-35, 200 nM DNA, 25 nM helicase, 75 nM E. coli DNA primase, 200 μM ATP and 200 μM GTP. To perform the HTS assay, 2 μl of compound/DMSO solution or aqueous DMSO solution was incubated with 23 μl of a reaction premix at room temperature for 15 min. The reaction premix was a 1.3× concentrated reaction solution without NTPs. After the incubation, 5 μl of a substrate solution with 1.2 mM ATP and 1.2 mM GTP were added to initiate the reaction. The reaction was incubated at room temperature for 40 min. Then 25 μl of a 30×SYBR Green II solution with 1.2 M NaCl was added and the fluorescence was measured (excitation at 485 nm, emission at 535 nm).
A dideoxy NTP was used as a positive inhibitory control for the primase reaction. […] Since ddATP competes with NTP (ATP in this case) in the primase reaction, the IC50 value was dependent on the substrate (ATP) concentration. Under the HTS conditions used, the IC50 of ddATP was 10 μM

Sequence of E. coli DNA primase (P0ABS5 whole entry): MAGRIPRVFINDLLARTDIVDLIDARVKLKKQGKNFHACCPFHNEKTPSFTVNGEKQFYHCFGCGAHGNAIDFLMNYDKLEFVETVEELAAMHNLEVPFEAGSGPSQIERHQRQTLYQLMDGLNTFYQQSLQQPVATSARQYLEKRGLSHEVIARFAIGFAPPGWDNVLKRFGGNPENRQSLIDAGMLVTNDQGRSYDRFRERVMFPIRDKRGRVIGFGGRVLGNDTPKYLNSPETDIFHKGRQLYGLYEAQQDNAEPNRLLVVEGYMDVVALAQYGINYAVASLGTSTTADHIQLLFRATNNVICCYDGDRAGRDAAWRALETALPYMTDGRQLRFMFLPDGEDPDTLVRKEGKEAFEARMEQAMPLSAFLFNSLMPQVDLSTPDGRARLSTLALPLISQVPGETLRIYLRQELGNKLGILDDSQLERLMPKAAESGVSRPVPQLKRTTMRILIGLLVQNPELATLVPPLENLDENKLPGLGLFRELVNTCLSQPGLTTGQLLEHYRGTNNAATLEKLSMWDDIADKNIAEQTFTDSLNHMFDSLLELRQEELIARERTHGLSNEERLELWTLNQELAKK

`Nc1ncnc2c1ncn2[C@H]1CC[C@@H](COP(=O)(O)OP(=O)(O)OP(=O)(O)O)O1` [ddATP] was tested, and the IC50 (HTS conditions, 200 μM ATP and 200 μM GTP, IC50 dependent on ATP concentration (competes with ATP), read-out: IC50 of inhibition of primase activity) was 10 µM.
With `[Cl-].[K+]` [KCl] the “inhibition of primase activity” value was “approximately 50%”.
For `[Cl-].[Na+]` [NaCl], the “inhibition of primase activity” value was “approximately 50%”.
“5′-CTCTCTCTCTCTCTCTCTCTCTCTCTCTCTCTCTGCAAAGC-3′ [DNA7]” gave a Km (DNA template concentration dependence, FIG. 5, read-out: apparent Km for DNA) of 0.105 µM.
